Data taken from patent US6515022B2, “Use of inhaled retinoids in the treatment of lung diseases” (Sloan-Kettering Institute for Cancer Research, priority 1996, dated 2003).
Values after ≈ are worked out from the molar mass of the structure shown. Like-named read-outs stand apart in the source and are kept apart here.

What was measured:
[1] = Attempts at aqueous solutions (MOLECUSOL, ammonium salt); format: physicochemical; conditions: solutions containing 45% MOLECUSOL (modified beta cyclodextrin)
Excerpt: Next, because of a report that the solubility of retinol (vitamin A) in water could be increased by addition of modified beta cyclodextrin (MOLECUSOL®), we next tried to prepare aqueous solutions of all-trans retinoic acid using MOLECUSOL® to enhance the solubility. […] Similarly, efforts to solubilize all-trans retinoic acid in aqueous solution using phosphatidylcholine and phosphatidylethanolamine produced a viscous colloid which was unsuited for aerosol administration.
We next tried to use salts of the retinoids to obtain a water-soluble product for aerosol generation. When all-trans retinoic acid is treated with ammonium hydroxide, a water-soluble ammonium salt is obtained. The pH of solutions of this salt is too high (pH >10), however, for direct administration as an aerosol. Neutralization of the solution after dissolution of the retinoid led to the formation of a precipitate, both in the presence and absence of added beta cyclodextrin.

[2] = Tissue/plasma concentrations after intra-tracheal instillation (HPLC); format: in vivo, Sprague-Dawley rats; conditions: Sprague-Dawley, other: intra-tracheal instillation, rat, 100 μg intra-tracheal instillation
Experimental: To evaluate the bioavailability of retinoids delivered by inhalation, 100 μl of an aqueous solution containing 100 μg of all-trans retinoic acid was administered via intra-tracheal instillation to 3 Sprague-Dawley rats, each weighing approximately 200 g. One rat was then sacrificed at three time points: 1, 6 and 24 hours after treatment. At the time of sacrifice, the chest cavity was opened, both lungs and trachea were removed en bloc, and the right and left lungs were separated by dissection. The liver was also removed, along with a sample of blood obtained by cardiac puncture. The blood sample was separated by centrifugation, and plasma plus each of the aforementioned tissues were frozen for later analysis. Subsequently, the tissue was homogenized, and the homogenized tissue and plasma were extracted with ethanol.

[3] = in vivo; conditions: rat
Experimental: The biodistribution and pharmacokinetics of an inhaled formulation of all-trans retinoic acid were compared to both intra-tracheal and intravenous administration. Anesthetized (i.p. pentobarbitol 50 mg/kg) male Sprague-Dawley rats weighing 300 to 700 grams were treated by administration of all-trans retinoic acid by inhalation, iv injection or intra-tracheal injection. Inhaled and intra-tracheal injections were given through an endotracheal tube placed under direct vision over a guidewire as described by Weksler et al., J. Appl. Physiol. 76: 1823-1825 (1994). IV doses were given by catheter injection via the right external jugular vein.
For inhalation, all-trans retinoic acid was solublized in hydrofluorocarbon 123 using tetramethylamunonium hydroxide to a concentration of 5 mg/ml, and combined with hydrofluoroalkane 134a as propellant, for a final concentration of 1.5 mg per 1.475 grams of propellant solution. […] An identical inhaler containing propellant mixture without drug was used as a control. […] This procedure was also repeated with an angiocatheter fitted to the apparatus. The catheter was subsequently rinsed with 10 ml of isopropanol, which was also collected. The three solutions were then assayed for all-trans retinoic acid concentrations in order to determine the amount of drug delivered through the apparatus, as well as any residual drug that was bound to the angiocatheter. We defined the area under the concentration times-time curve (AUC) for animals who received intra-tracheal all-trans retinoic acid as 100% effective dose delivery to the lung.
For injection, an aqueous solution of all-trans retinoic acid was prepared in 20% ethanol, 10% Tween 20 and 1 mM NH4OH, for a final concentration of […] all-trans retinoic acid per ml of solution. A mixture of 20% ethanol and 10% Tween 20 served as a control.
Animals were grouped into three experimental groups and two control groups. The control groups received no treatment or a control inhalant containing no all-trans retinoic acid. Animals in the groups receiving iv or intra-tracheal injections each received a single dose containing 250 μg all-trans retinoic acid. Animals in the group treated with the multidose inhaler each received three doses for a total of 147 μg of all-trans retinoic acid.

[4] = physchem; conditions: organic solvent or mixture, thermodynamic from solid
Experimental: Maximum solubility was determined by weighing the residue remaining after evaporation of the solvent.

[5] = physchem; conditions: HCFC-123 without alkylamine, organic solvent or mixture
[6] = Solubility in chlorofluorocarbons with alkylamine solubilizers
[7] = Histologic examination of lungs and trachea after single-dose administration; conditions: rat
Experimental: Animals were sacrificed at 5 minutes and at 1, 2, 4 and 6 hours, and blood and liver and lung tissue were harvested for analysis by high performance liquid chromatography (HPLC) and histology. In addition, animals receiving the inhalant were sacrificed at 24 hours post-treatment.

[8] = left lung, read-out: Left Lung concentration
[9] = liver, read-out: Liver concentration
[10] = plasma, read-out: Plasma concentration
[11] = right lung, read-out: Right Lung concentration
[12] = trachea, read-out: Trachea concentration
[13] = male, Sprague-Dawley, inhaled or intranasal, 147 ug
[14] = male, Sprague-Dawley, iv, 250 ug

Structure (SMILES): CC1=C(/C=C/C(C)=C/C=C/C(C)=C/C(=O)O)C(C)(C)CCC1 [all-trans retinoic acid]
- Solubility in aqueous solution [1]: enhance the solubility of the all-trans retinoic acid to a useful level
- concentration at 1 hour [2, 8]: 928 ng/g
- concentration at 6 hours [2, 8]: 56 ng/g
- concentration at 24 hours [2, 8]: 22 ng/g
- concentration at 1 hour [2, 9]: 233 ng/g
- concentration at 6 hours [2, 9]: 24 ng/g
- concentration at 24 hours [2, 9]: 23 ng/g
- concentration at 1 hour [2, 10]: 123 ng/mL
- concentration at 24 hours [2, 10]: 178 ng/mL
- concentration at 1 hour [2, 11]: 773 ng/g
- concentration at 6 hours [2, 11]: 91 ng/g
- concentration at 24 hours [2, 11]: 21 ng/g
- concentration at 1 hour [2, 12]: 2860 ng/g
- concentration at 6 hours [2, 12]: 96 ng/g
- concentration at 24 hours [2, 12]: 30 ng/g
- Lung AUC, intra-tracheal route relative to aerosolized route ([3]; male, Sprague-Dawley): 100 times
- concentration at 1 hour ([3]; male, Sprague-Dawley): 68 ± 44 ng/mL
- AUC ([3]; male, Sprague-Dawley, 250 ug): 191 ng·h/mL
- Liver AUC ([3]; male, Sprague-Dawley, 250 ug): 2532 ng-hr/gm
- Lung AUC ([3]; male, Sprague-Dawley, 250 ug): 26972 ng-hr/gm
- half-life ([3]; male, Sprague-Dawley, 250 ug, Liver T½): 22 h
- half-life ([3]; male, Sprague-Dawley, 250 ug, Lung T½): 17.7 h
- half-life ([3]; male, Sprague-Dawley, 250 ug, Plasma T½): 1.9 h
- AUC [3, 13]: 171 ng·h/mL
- Liver AUC [3, 13]: 2307 ng-hr/gm
- Lung AUC [3, 13]: 262 ng-hr/gm
- half-life ([3]; male, Sprague-Dawley, inhaled or intranasal, 147 ug, Lung T½): 5.4 h
- half-life ([3]; male, Sprague-Dawley, inhaled or intranasal, 147 ug, Plasma T½): 3 h
- Total absorption (percent effective dose: inhaled AUC / intra-tracheal AUC) ([3]; male, Sprague-Dawley, inhaled or intranasal, 250 ug): 1-2%
- AUC [3, 14]: 1380 ng·h/mL
- Liver AUC [3, 14]: 4724 ng-hr/gm
- Liver T½ [3, 14]: 0.8 h
- Lung AUC [3, 14]: 11910 ng-hr/gm
- half-life ([3]; male, Sprague-Dawley, iv, 250 ug, Liver T½): 1 h
- half-life ([3]; male, Sprague-Dawley, iv, 250 ug, Lung T½): 1.9 h
- Lung AUC, intra-tracheal route relative to iv route [3]: twice
- solubility ([4]; ethyl acetate): 10000 µg/mL (≈ 33.3 mM)
- solubility ([4]; methylene chloride): 5000 µg/mL (≈ 16.6 mM)
- solubility [5]: ~2000 µg/mL (≈ 6.66 mM)
- Maximum Solubility ([6]; HCFC-123, alkylamine 1.44 mg/ml): ˜17 mg/ml
- Maximum Solubility ([6]; HCFC-123, alkylamine 7.22 mg/ml): ˜44 mg/ml
- Histologic examination of lungs and traches [7]: no focal irritation attributable to the drug
